System: plants
Test: Shikimic acid/shikimate accumulation in glyphosate-treated plants, periodate/sulfite chromophore assay
Type: in vivo
Conditions: plants treated with a lethal amount of glyphosate; 5-10 μL of extract of about 150 mg leaf tissue in 8-fold (w/v) 0.25N hydrochloric acid; 1 ml final solution; control about 0.1 AU
Method: In the performance of the methods of the invention, for detection of the chromophore, it is preferable to have an absorbance of at least 0.05 absorbance units (AU) for the untreated control plant test sample and an absorbance of less than 2.0 AU for the test sample with the greatest amount of shikimic acid/shikimate in order to obtain optimal results from spectrophotometric measurement of the chromophore. […] After reaction with the periodate reagent and quenching by 0.5 ml of a mixture comprising sulfite and sodium hydroxide, there was 1 ml of solution with an absorbance of about 1.8 AU, while an untreated control plant gave an absorbance of about 0.1 AU.

O=C(O)CNCP(=O)(O)O [glyphosate, N-(phosphonomethyl) glycine]
absorbance of the chromophore (shikimic acid/shikimate accumulated): about 1.8 AU
